Experimental findings from ChEMBL document CHEMBL3991601, “The target landscape of clinical kinase drugs” (Science, 2017) are described below.

As a reminder, the Kd is the concentration at which binding is half-saturated.

The structures appear in SMILES notation. The source made the active and inactive calls. For most assays here, no stated cut-off is given here; in the data, actives have a measured Kd and inactives only a lower limit. Some results are limits rather than exact numbers.

The target in test [1] is Cyclin-dependent kinase 12 (Homo sapiens, UniProt Q9NYV4).
In test [2] the target is T1, Serine/threonine-protein kinase ULK1 (Homo sapiens, UniProt O75385).
T1 sequence (O75385 whole entry): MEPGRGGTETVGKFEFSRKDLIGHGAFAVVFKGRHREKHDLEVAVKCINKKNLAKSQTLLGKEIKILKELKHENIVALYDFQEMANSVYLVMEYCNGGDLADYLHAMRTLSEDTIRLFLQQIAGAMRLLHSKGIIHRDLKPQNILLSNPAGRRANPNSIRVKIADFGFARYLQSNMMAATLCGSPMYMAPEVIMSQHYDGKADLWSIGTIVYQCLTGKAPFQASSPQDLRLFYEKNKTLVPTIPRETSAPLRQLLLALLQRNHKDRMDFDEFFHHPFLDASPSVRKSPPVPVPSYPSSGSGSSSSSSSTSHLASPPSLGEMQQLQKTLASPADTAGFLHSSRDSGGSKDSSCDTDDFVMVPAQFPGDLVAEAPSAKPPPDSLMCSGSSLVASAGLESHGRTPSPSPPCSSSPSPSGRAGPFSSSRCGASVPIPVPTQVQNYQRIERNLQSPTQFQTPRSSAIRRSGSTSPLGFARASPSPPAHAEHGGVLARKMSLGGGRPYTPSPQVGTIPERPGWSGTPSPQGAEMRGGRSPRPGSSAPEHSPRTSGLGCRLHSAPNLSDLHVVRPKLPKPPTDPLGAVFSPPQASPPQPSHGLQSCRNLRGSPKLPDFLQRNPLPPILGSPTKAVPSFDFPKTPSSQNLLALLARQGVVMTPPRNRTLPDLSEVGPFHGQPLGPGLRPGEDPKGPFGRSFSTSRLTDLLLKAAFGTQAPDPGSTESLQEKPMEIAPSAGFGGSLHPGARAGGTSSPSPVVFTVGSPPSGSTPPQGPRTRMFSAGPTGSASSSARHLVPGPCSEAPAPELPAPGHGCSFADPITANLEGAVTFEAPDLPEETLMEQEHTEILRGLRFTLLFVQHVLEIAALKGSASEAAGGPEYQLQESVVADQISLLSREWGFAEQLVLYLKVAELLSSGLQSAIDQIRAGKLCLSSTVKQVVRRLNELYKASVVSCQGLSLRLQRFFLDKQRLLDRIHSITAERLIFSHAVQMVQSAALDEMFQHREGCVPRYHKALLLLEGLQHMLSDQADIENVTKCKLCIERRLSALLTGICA

The target of test [3] is Receptor-interacting serine/threonine-protein kinase 2 (Homo sapiens, UniProt O43353).
Test [4] addresses MAP kinase-activated protein kinase 2 (Homo sapiens, UniProt P49137).
In test [5] the target is T2, RNA cytidine acetyltransferase (Homo sapiens, UniProt Q9H0A0).
T2 sequence (Q9H0A0 whole entry): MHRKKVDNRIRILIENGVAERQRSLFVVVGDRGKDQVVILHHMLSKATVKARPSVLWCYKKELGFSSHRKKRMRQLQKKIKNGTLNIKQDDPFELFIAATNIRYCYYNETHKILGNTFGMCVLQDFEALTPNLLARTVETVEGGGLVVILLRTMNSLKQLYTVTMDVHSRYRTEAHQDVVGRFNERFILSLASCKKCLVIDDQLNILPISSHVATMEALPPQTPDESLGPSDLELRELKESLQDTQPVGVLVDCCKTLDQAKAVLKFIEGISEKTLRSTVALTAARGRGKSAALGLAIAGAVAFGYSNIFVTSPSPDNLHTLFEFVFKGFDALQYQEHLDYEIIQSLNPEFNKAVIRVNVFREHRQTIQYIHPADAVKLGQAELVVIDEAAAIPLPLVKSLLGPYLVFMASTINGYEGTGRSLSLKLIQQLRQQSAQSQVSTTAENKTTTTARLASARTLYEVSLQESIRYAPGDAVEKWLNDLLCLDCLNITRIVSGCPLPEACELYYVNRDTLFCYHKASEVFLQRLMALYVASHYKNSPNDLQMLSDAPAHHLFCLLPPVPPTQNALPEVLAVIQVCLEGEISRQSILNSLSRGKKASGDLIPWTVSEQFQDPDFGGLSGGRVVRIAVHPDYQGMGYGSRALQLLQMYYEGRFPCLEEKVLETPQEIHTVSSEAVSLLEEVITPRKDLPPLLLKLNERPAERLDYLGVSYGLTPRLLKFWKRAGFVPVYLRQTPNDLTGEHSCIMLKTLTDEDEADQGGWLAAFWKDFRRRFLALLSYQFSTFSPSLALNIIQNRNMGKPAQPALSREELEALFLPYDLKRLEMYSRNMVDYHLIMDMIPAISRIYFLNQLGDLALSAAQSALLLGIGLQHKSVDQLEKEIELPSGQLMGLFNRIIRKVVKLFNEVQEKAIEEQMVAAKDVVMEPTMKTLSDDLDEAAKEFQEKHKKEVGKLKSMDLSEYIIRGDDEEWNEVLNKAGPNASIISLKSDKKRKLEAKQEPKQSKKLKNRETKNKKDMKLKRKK

Test [6] deals with MAP/microtubule affinity-regulating kinase 3 (Homo sapiens, UniProt P27448).
MAP/microtubule affinity-regulating kinase 3, sequence (P27448 whole entry): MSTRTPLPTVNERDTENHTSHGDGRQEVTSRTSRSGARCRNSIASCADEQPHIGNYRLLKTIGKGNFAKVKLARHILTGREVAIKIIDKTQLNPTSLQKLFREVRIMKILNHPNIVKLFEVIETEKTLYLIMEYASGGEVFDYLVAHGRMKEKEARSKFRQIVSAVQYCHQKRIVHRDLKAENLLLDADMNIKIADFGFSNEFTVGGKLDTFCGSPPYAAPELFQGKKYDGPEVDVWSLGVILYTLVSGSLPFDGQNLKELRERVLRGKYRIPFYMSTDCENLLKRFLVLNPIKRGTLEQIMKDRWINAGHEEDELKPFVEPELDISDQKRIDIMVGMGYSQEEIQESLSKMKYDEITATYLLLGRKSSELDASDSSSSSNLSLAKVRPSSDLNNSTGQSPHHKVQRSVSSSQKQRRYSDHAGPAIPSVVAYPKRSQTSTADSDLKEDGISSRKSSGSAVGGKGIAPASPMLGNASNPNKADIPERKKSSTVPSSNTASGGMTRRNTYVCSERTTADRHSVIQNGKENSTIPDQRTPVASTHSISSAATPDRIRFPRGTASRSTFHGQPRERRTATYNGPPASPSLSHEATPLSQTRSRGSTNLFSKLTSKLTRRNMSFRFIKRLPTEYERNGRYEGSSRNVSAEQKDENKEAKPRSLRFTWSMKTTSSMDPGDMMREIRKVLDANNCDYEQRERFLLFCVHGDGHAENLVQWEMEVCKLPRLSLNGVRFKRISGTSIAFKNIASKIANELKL

Receptor-interacting serine/threonine-protein kinase 2, sequence (O43353 whole entry): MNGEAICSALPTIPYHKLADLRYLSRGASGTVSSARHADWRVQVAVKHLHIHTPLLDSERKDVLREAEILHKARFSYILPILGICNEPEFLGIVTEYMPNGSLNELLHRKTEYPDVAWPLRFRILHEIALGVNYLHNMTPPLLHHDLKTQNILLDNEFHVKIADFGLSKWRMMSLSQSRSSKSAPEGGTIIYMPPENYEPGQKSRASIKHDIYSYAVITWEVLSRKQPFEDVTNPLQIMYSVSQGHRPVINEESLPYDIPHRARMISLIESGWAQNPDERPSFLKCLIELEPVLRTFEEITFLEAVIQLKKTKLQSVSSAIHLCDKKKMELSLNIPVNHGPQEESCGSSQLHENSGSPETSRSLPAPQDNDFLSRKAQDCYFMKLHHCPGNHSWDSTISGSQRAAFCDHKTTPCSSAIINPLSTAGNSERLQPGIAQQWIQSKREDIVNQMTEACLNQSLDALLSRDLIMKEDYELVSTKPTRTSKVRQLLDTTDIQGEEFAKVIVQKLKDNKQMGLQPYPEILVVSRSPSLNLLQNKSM
Cyclin-dependent kinase 12, sequence (Q9NYV4 whole entry): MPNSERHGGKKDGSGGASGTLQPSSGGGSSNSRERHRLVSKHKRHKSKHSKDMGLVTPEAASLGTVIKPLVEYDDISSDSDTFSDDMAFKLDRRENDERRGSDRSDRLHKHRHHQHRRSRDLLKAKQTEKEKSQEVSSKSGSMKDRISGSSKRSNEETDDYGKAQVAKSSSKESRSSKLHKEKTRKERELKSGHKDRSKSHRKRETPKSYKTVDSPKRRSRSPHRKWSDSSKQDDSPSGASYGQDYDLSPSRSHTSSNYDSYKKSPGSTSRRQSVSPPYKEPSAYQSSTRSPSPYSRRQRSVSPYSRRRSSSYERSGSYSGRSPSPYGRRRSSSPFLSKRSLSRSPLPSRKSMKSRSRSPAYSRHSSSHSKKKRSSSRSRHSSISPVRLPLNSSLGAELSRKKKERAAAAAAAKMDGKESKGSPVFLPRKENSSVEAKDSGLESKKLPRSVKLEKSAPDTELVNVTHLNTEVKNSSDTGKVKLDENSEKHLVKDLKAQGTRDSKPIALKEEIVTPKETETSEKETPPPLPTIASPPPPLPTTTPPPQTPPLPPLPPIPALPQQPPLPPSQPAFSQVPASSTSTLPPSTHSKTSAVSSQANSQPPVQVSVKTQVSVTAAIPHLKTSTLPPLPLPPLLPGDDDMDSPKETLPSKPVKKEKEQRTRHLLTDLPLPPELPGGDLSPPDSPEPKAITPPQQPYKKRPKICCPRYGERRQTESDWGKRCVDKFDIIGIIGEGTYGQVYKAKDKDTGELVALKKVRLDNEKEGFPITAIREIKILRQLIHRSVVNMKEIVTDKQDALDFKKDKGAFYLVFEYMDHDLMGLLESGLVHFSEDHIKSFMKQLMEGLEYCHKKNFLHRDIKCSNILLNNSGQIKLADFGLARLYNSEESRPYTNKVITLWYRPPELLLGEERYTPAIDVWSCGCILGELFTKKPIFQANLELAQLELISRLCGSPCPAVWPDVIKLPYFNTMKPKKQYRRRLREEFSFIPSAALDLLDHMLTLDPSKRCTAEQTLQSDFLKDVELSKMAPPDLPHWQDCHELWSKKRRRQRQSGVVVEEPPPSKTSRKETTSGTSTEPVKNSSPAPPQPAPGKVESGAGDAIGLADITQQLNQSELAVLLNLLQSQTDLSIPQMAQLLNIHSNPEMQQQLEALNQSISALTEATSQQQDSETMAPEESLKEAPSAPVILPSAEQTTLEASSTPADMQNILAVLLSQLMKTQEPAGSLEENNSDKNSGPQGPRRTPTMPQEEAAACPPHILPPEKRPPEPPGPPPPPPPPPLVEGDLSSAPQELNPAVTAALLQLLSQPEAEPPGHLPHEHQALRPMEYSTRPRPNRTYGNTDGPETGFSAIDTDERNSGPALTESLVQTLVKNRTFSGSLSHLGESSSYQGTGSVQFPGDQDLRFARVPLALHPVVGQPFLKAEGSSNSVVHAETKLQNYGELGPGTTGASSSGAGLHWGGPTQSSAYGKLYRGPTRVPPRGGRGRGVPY
MAP kinase-activated protein kinase 2, sequence (P49137 whole entry): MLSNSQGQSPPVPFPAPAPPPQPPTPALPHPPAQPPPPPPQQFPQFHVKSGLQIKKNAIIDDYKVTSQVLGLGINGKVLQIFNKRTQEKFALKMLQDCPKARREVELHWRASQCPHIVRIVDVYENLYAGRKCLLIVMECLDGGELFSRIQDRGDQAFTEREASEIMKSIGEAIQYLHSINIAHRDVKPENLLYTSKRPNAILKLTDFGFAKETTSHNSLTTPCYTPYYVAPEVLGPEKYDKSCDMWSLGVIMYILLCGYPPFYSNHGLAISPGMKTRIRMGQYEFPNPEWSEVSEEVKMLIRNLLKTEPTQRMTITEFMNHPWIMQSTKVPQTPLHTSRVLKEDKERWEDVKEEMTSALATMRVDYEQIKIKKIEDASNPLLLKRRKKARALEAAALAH

For the compound `COc1ccc2c(OCc3nnc4ccc(-c5ccccc5)nn34)ccnc2c1` [AMG-208], the Kd in test [1], in test [2], in test [3], in test [4], in test [5] and in test [6] was > 30 µM (inactive) in each case.
Take `Cc1cc(-c2cc(OC(=O)c3ccccc3)ccc2Cl)cc2nnc(Nc3ccc(OCCN4CCCC4)cc3)nc12` [TG100-801]: the Kd in test [1] is > 30 µM (inactive); in test [2] it was > 30 µM (inactive); in test [3], 0.192 µM (active); in test [4], > 30 µM (inactive); in test [5], > 30 µM (inactive); in test [6], > 30 µM (inactive).
Regarding `O=C(NC[C@H](O)CO)c1ccncc1Nc1ccc(I)cc1F` [PIMASERTIB], the Kd in test [1], in test [2], in test [3], in test [4], in test [5] and in test [6] was > 30 µM (inactive) throughout.
Turning to `c1cc(OCCN2CCCCC2)cc(-c2n[nH]c3ccc(-c4nc[nH]n4)cc23)c1` [CC-401], the Kd in test [1], in test [2], in test [3], in test [4], in test [5] and in test [6] was > 30 µM (inactive) each time.
For the compound `NC(=O)c1ccc(N(C(N)=O)c2c(F)cccc2F)nc1-c1ccc(F)cc1F` [VX-702], the Kd in test [1] is > 30 µM (inactive); in test [2], > 30 µM (inactive); in test [3], > 30 µM (inactive); in test [4] it was 0.0003 µM (active); in test [5] it was > 30 µM (inactive); in test [6], > 30 µM (inactive).
Regarding `CC[C@@](C)(Nc1ccnc(-c2c[nH]c3ncccc23)n1)C(=O)NCC(F)(F)F` [DECERNOTINIB], the Kd is > 30 µM (inactive) in test [1]; > 30 µM (inactive) in test [2]; > 30 µM (inactive) in test [3]; > 30 µM (inactive) in test [4]; > 30 µM (inactive) in test [5]; 0.562 µM (active) in test [6].
Turning to `CC(C)CC(=O)Nc1[nH]nc2c1CN(C(=O)C1CCN(C)CC1)C2(C)C` [PHA-793887], the Kd in test [1] is 3.66 µM (active); in test [2], 0.838 µM; in test [3], > 30 µM (inactive); in test [4], > 30 µM (inactive); in test [5], > 30 µM (inactive); in test [6] it was > 30 µM (inactive).
On to `COc1cc2ncnc(Nc3ccc(O)cc3)c2cc1OC` [WHI-P131], for which the Kd was > 30 µM (inactive) in test [1]; > 30 µM (inactive) in test [2]; 5.94 µM (active) in test [3]; > 30 µM (inactive) in test [4]; > 30 µM (inactive) in test [5]; > 30 µM (inactive) in test [6].
Turning to `CNC(=O)c1cc(COc2nnc(Nc3ccc(Cl)cc3)c3ccoc23)ccn1` [TELATINIB], the Kd in test [1], in test [2], in test [3], in test [4], in test [5] and in test [6] was > 30 µM (inactive) in each case.
As to `COc1cccc(Nc2ncnn3ccc(CN4CC[C@@H](N)[C@H](O)C4)c23)c1` [BMS-690514], the Kd is > 30 µM (inactive) in test [1]; > 30 µM (inactive) in test [2]; > 30 µM (inactive) in test [3]; > 30 µM (inactive) in test [4]; > 30 µM (inactive) in test [5]; 1.7 µM (active) in test [6].
For the compound `S=C(NCc1ccc2c(c1)OCO2)N1CCN(c2ncnc3c2oc2ccccc23)CC1` [AMUVATINIB], the Kd in test [1], in test [2], in test [3], in test [4], in test [5] and in test [6] was > 30 µM (inactive) each time.
As for `COc1cc(F)c(F)c(Nc2ccc(I)cc2F)c1NS(=O)(=O)C1(C[C@H](O)CO)CC1` [REFAMETINIB], the Kd in test [1], in test [2], in test [3], in test [4], in test [5] and in test [6] was > 30 µM (inactive) throughout.
Take `Cc1ccc(C(=O)Nc2ccc(Oc3cc4cnn(C)c4cc3-c3cn[nH]c3)c(F)c2)c(=O)n1-c1ccc(F)cc1` [MERESTINIB]: the Kd in test [1], in test [2], in test [3], in test [4], in test [5] and in test [6] was > 30 µM (inactive) in each case.
As to `C=CC(=O)Nc1cccc(Nc2nc(Nc3ccc(N4CCN(C(C)=O)CC4)cc3OC)ncc2C(F)(F)F)c1` [ROCILETINIB], the Kd in test [1], in test [2], in test [3], in test [4], in test [5] and in test [6] was > 30 µM (inactive) throughout.
Consider `C=CC(=O)Nc1cc(Nc2nccc(-c3cn(C)c4ccccc34)n2)c(OC)cc1N(C)CCN(C)C` [OSIMERTINIB], for which the Kd in test [1], in test [2], in test [3], in test [4], in test [5] and in test [6] was > 30 µM (inactive) each time.
With `COc1cc(Nc2ncc(F)c(Nc3ccc4c(n3)N(COP(=O)(O)O)C(=O)C(C)(C)O4)n2)cc(OC)c1OC` [FOSTAMATINIB], the Kd in test [1], in test [2], in test [3], in test [4], in test [5] and in test [6] was > 30 µM (inactive) in each case.
Turning to `O=C(O)c1ccc2c(c1)nc(Nc1cccc(Cl)c1)c1ccncc12` [SILMITASERTIB], the Kd in test [1] was > 30 µM (inactive); in test [2], 3.66 µM (active); in test [3] it was > 30 µM (inactive); in test [4], 5.3 µM (active); in test [5], > 30 µM (inactive); in test [6] it was > 30 µM (inactive).
Turning to `CCc1nc(C(N)=O)c(Nc2ccc(N3CCC(N4CCN(C)CC4)CC3)c(OC)c2)nc1NC1CCOCC1` [GILTERITINIB], the Kd in test [1] was > 30 µM (inactive); in test [2], > 30 µM (inactive); in test [3], 0.482 µM (active); in test [4], > 30 µM (inactive); in test [5], > 30 µM (inactive); in test [6] it was > 30 µM (inactive).
